Reference: PubChem BioAssay (NCI)
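48-hour exposure; five concentrations; linearly interpolated endpoints. Abbreviation: GI50, concentration required for 50% inhibition of growth. Definition used: TGI = concentration required for complete inhibition of growth.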

Tests used:
Assay in all cases: DTP human tumour cell line panel, 48 h
786-0 renal = tested on: 786-0 renal
A498 renal = tested on: A498 renal
A549 NSCLC = tested on: A549 NSCLC
ACHN renal = tested on: ACHN renal
BT-549 breast = tested on: BT-549 breast
CAKI-1 renal = tested on: CAKI-1 renal
CCRF-CEM leukemia = tested on: CCRF-CEM leukemia
COLO 205 colon = tested on: COLO 205 colon
DU-145 prostate = tested on: DU-145 prostate
HCC-2998 colon = tested on: HCC-2998 colon
HCT-116 colon = tested on: HCT-116 colon
HCT-15 colon = tested on: HCT-15 colon
HL-60(TB) leukemia = tested on: HL-60(TB) leukemia
HOP-62 NSCLC = tested on: HOP-62 NSCLC
HOP-92 NSCLC = tested on: HOP-92 NSCLC
HS 578T breast = tested on: HS 578T breast
IGROV1 ovarian = tested on: IGROV1 ovarian
K-562 leukemia = tested on: K-562 leukemia
KM12 colon = tested on: KM12 colon
LOX IMVI melanoma = tested on: LOX IMVI melanoma
M14 melanoma = tested on: M14 melanoma
MALME-3M melanoma = tested on: MALME-3M melanoma
MCF7 breast = tested on: MCF7 breast
MDA-MB-231 breast = tested on: MDA-MB-231 breast
MDA-MB-435 = tested on: MDA-MB-435
MOLT-4 leukemia = tested on: MOLT-4 leukemia
NCI-H226 lung = tested on: NCI-H226 lung
NCI-H23 lung = tested on: NCI-H23 lung
NCI-H460 lung = tested on: NCI-H460 lung
NCI-H522 lung = tested on: NCI-H522 lung
NCI/ADR-RES ovarian = tested on: NCI/ADR-RES ovarian
OVCAR-3 ovarian = tested on: OVCAR-3 ovarian
OVCAR-5 ovarian = tested on: OVCAR-5 ovarian
OVCAR-8 ovarian = tested on: OVCAR-8 ovarian
PC-3 prostate = tested on: PC-3 prostate
RPMI-8226 leukemia = tested on: RPMI-8226 leukemia
RXF 393 renal = tested on: RXF 393 renal
SF-268 CNS = tested on: SF-268 CNS
SF-295 CNS = tested on: SF-295 CNS
SF-539 CNS = tested on: SF-539 CNS
SK-MEL-2 melanoma = tested on: SK-MEL-2 melanoma
SK-MEL-28 melanoma = tested on: SK-MEL-28 melanoma
SK-MEL-5 melanoma = tested on: SK-MEL-5 melanoma
SK-OV-3 ovarian = tested on: SK-OV-3 ovarian
SN12C renal = tested on: SN12C renal
SNB-19 CNS = tested on: SNB-19 CNS
SNB-75 CNS = tested on: SNB-75 CNS
SR leukemia = tested on: SR leukemia
SW-620 colon = tested on: SW-620 colon
T-47D breast = tested on: T-47D breast
TK-10 renal = tested on: TK-10 renal
UACC-257 melanoma = tested on: UACC-257 melanoma
UACC-62 melanoma = tested on: UACC-62 melanoma
UO-31 renal = tested on: UO-31 renal

## Cc1nc2ccc(Nc3nc(Cl)nc(Nc4ccc(F)cc4)n3)cc2n1Cc1ccccc1
786-0 renal
  GI50: 5.18 µM
  TGI: 37 µM
A498 renal
  GI50: 13.2 µM
  TGI: 41 µM
A549 NSCLC
  GI50: 11.3 µM
  TGI: 30.9 µM
ACHN renal
  GI50: 3 µM
  TGI: 10.4 µM
BT-549 breast
  GI50: 4 µM
  TGI: 18.8 µM
CAKI-1 renal
  GI50: 7.94 µM
  TGI: 35.2 µM
CCRF-CEM leukemia
  GI50: 3.85 µM
  TGI: > 100 µM
COLO 205 colon
  GI50: 11.2 µM
  TGI: 26.5 µM
DU-145 prostate
  GI50: 9.44 µM
  TGI: 22.6 µM
HCC-2998 colon
  GI50: 2.6 µM
  TGI: 5.96 µM
HCT-116 colon
  GI50: 3.56 µM
  TGI: 13.6 µM
HCT-15 colon
  GI50: 2.92 µM
  TGI: 10.4 µM
HL-60(TB) leukemia
  GI50: 3.02 µM
  TGI: 7.6 µM
HOP-62 NSCLC
  GI50: 10.7 µM
  TGI: 30.4 µM
HOP-92 NSCLC
  GI50: 2.3 µM
  TGI: 9.23 µM
HS 578T breast
  GI50: 10.9 µM
  TGI: > 100 µM
IGROV1 ovarian
  GI50: 4.4 µM
  TGI: 20.8 µM
K-562 leukemia
  GI50: 3.43 µM
  TGI: > 100 µM
KM12 colon
  GI50: 4.25 µM
  TGI: 17.6 µM
LOX IMVI melanoma
  GI50: 3.59 µM
  TGI: 14.1 µM
M14 melanoma
  GI50: 5.54 µM
  TGI: 22 µM
MALME-3M melanoma
  GI50: 11.4 µM
  TGI: 24.6 µM
MCF7 breast
  GI50: 2.71 µM
  TGI: 12.4 µM
MDA-MB-231 breast
  GI50: 3.99 µM
  TGI: 20.4 µM
MDA-MB-435
  GI50: 6.4 µM
  TGI: 23.1 µM
MOLT-4 leukemia
  GI50: 3.92 µM
  TGI: 18.1 µM
NCI-H226 lung
  GI50: 4.14 µM
  TGI: 21.6 µM
NCI-H23 lung
  GI50: 7.16 µM
  TGI: 25.2 µM
NCI-H460 lung
  GI50: 4.23 µM
  TGI: 17.8 µM
NCI-H522 lung
  GI50: 2.51 µM
  TGI: 6.85 µM
NCI/ADR-RES ovarian
  GI50: 4.11 µM
  TGI: 18.5 µM
OVCAR-3 ovarian
  GI50: 4.06 µM
  TGI: 15 µM
OVCAR-5 ovarian
  GI50: 14.7 µM
  TGI: 44.1 µM
OVCAR-8 ovarian
  GI50: 3.25 µM
  TGI: 14.1 µM
PC-3 prostate
  GI50: 7.11 µM
  TGI: 32.9 µM
RPMI-8226 leukemia
  GI50: 2.05 µM
  TGI: 5.09 µM
RXF 393 renal
  GI50: 4.45 µM
  TGI: 21.5 µM
SF-268 CNS
  GI50: 10.8 µM
  TGI: 46.8 µM
SF-295 CNS
  GI50: 1.9 µM
  TGI: 4.53 µM
SF-539 CNS
  GI50: 4.53 µM
  TGI: 17.4 µM
SK-MEL-2 melanoma
  GI50: 4.15 µM
  TGI: 15 µM
SK-MEL-28 melanoma
  GI50: 3.15 µM
  TGI: 10.5 µM
SK-MEL-5 melanoma
  GI50: 4.19 µM
  TGI: 15.1 µM
SK-OV-3 ovarian
  GI50: 18.1 µM
  TGI: 66.8 µM
SN12C renal
  GI50: 5.22 µM
  TGI: 38.3 µM
SNB-19 CNS
  GI50: 4.55 µM
  TGI: 26.9 µM
SNB-75 CNS
  GI50: 10.2 µM
  TGI: 26.2 µM
SR leukemia
  GI50: 3.79 µM
  TGI: 39.5 µM
SW-620 colon
  GI50: 4.95 µM
  TGI: 35 µM
T-47D breast
  GI50: 1.81 µM
  TGI: 4.58 µM
TK-10 renal
  GI50: 18.1 µM
  TGI: 44.4 µM
UACC-257 melanoma
  GI50: 11.8 µM
  TGI: 28.9 µM
UACC-62 melanoma
  GI50: 3.06 µM
  TGI: 12.9 µM
UO-31 renal
  GI50: 2.85 µM
  TGI: 12.2 µM
